Data as given in US11518742B2 (priority 2020, dated 2022).
Where two headings read alike, the source gives them in different places.

What was measured:
[1] = Maximum tolerated dose followed by 7-day repeat-dose toxicology in rats (Study 700040); assay type: in vivo, rat; settings: both sexes, Sprague-Dawley, rat, in vivo, inhaled or intranasal; single intranasal administration
Experimental: (§1) The study consisted of 2 parts. […] The doses used in part 1 were 15, 30, 50, 65, and 75 mg/kg. Each subsequent dose was administered following at least 24 hours from the commencement of the previous dose. There were 2 males and 2 females in each dose group.
(§2) During Phase I, assessments of mortality, clinical signs and body weights were performed. […] The necropsy consisted of an external examination, including reference to all clinically-recorded lesions, as well as a detailed internal examination.
(§3) During Phase 2, assessments of mortality, clinical signs and body weights were performed. Following dosing, all animals were euthanized and subjected to a necropsy examination on Day 8. The necropsy consisted of an external examination, including reference to all clinically-recorded lesions, as well as a detailed internal examination. Study plan specific tissues/organs were collected and retained, then trimmed and preserved promptly once the animal was euthanized but these were not further examined microscopically.

Sprague-Dawley rats = assay: as above; assay type: in vivo, rat
Experimental: as §1, §2, §3

[2] = tested on: Salmonella typhimurium tester strains; assay: Bacterial Reverse Mutation Test (Ames test), Salmonella typhimurium
[3] = Toxicokinetics, 14-day intranasal study in dogs (Study 62959); assay type: in vivo; settings: dog, plasma, inhaled or intranasal; for AUC(0-inf): read-out: AUCINF_obs; for AUC(0-t): read-out: AUC0-Tlast
Experimental: (§4) Assessments of mortality, clinical signs, olfactory reflex, body weights, food consumption, ophthalmology, and electrocardiograms were performed. In addition, clinical pathology assessments (hematology, coagulation, clinical chemistry and urinalysis) were evaluated once pretreatment and at termination. Blood samples were collected from the jugular vein of all animals on Days 1 and 14, at up to 8 time points relative to treatment, for analysis of test item concentration in plasma and the subsequent calculation of toxicokinetic parameters. Following dosing, the Main animals were euthanized and subjected to a complete necropsy examination on Day 15. […] All Main and Recovery study animals underwent complete necropsy examinations, selected tissues/organs were retained, and microscopic evaluations of a standard set of tissues were performed.
For toxicokinetics, a series of 8 blood samples were collected from the jugular vein from all treated animals on each of Days 1 and 14 of the treatment period at 2, 5, 10, 15, 30, and 60 minutes as well as 3 and 8 hours after treatment.

male Sprague-Dawley rats = assay: Functional Observational Battery (FOB), single intranasal administration (ITR study 15951); assay type: in vivo, rat
Experimental: The test and control/vehicle items were administered by single dose intranasal administration to both nostrils, as shown in Table 7.
Parameters monitored included mortality and clinical signs. General behavioral changes were assessed using FOB at 6 timepoints: before dosing, and at 15 minutes, 1, 2, 4, and 24 hours postdosing. On each occasion, the FOB was performed at 4 stages: when the animals were in their home cage, while handling the animals, when the animals were freely moving in an open-field, and when they received diverse stimuli for reactivity evaluation. The body temperature and neuromuscular strength were also measured on each of the occasions detailed above.

Beagle dogs = assay: 14-day repeat-dose intranasal toxicity study with 14-day recovery in dogs (Study 62959); assay type: in vivo, dog
Experimental: as §4

[4] = as above; assay type: in vivo, dog; settings: both sexes, Beagle, dog, in vivo, inhaled or intranasal; 14 consecutive days intranasal, 14-day recovery
Experimental: as §4

[5] = Maximum tolerated dose followed by 7-day repeat-dose toxicology in dogs (Study 62958); assay type: in vivo, dog; settings: both sexes, dog, in vivo, inhaled or intranasal; intranasal instillation
Experimental: (§5) In support of these objectives, the study consisted of 2 individual phases.
(§6) The test item was administered once by intranasal instillation to one male and female dog for up to 5 dose levels until the highest tolerable dose (MTD) was determined as described in Table 11.
(§7) During Phase 2, assessments of mortality, clinical signs, body weights and food consumption were performed. […] Following the last dosing, all animals were euthanized and subjected to a necropsy examination on Day 8. The necropsy consisted of an external examination; including reference to all clinically-recorded lesions, as well as a detailed internal examination. Study plan specific tissues/organs were collected and preserved following necropsy but were not further examined microscopically.

dogs = assay: as above; assay type: in vivo, dog
Experimental: as §5, §6, §7

[6] = Summary of clinical observations in applicant-sponsored rat studies; settings: Sprague Dawley, in vivo, other: intranasal instillation, HED 48 mg, read-out: NOAEL determined in the 14-day toxicology studies
Excerpt: Based on preliminary data from another ongoing study in dogs, it has been observed that the site of blood sampling in dogs may impact the measured plasma exposure. Samples from the jugular vein may result in higher apparent exposure levels than samples from the cephalic vein, which might be due to the local transmucosal route of administration (also reported in the scientific literature (Illum, 2003; Sohlberg, 2013)). Therefore, dose escalation criteria for the Phase 1 Single Ascending Dose study are based on assessment of clinical criteria, safety factors and exposure. A maximum dose of 14 mg has been designated.

[7] = female, Beagle, 0.8 mg/kg/day, Day 1, Female
[8] = female, Beagle, 0.8 mg/kg/day, Day 14, Female
[9] = female, beagle, 0.4 mg/kg/day, Day 1, Female
[10] = female, beagle, 0.4 mg/kg/day, Day 14, Female
[11] = male, Beagle, 0.8 mg/kg/day, Day 1, Male
[12] = male, Beagle, 0.8 mg/kg/day, Day 14, Male
[13] = male, beagle, 0.4 mg/kg/day, Day 1, Male
[14] = male, beagle, 0.4 mg/kg/day, Day 14, Male

COc1ccc2[nH]cc(CCN(C)C)c2c1 [5MeODMT, 5-methoxy-N,N-dimethyltryptamine]
MTD at 14 days [1]: 75 mg/kg | Body weight gain (Sprague-Dawley rats; 75 mg/kg for 7 consecutive days): slightly suppressed for both sexes | Tolerability, 7 consecutive days (Sprague-Dawley rats; 75 mg/kg once daily intranasal): tolerated | Tolerability, single intranasal administration (Sprague-Dawley rats; dose levels up to 75 mg/kg): tolerated | Mortality and gross pathology (Sprague-Dawley rats; single dose 15, 30, 50, 65, 75 mg/kg): no mortality and gross pathology findings at any dose | Cytotoxicity ([2]; 1600 μg/plate, all S. typhimurium strains): slight cytotoxicity | Repeat test, revertant colonies ([2]; TA1537 and TA98, absence of S9 mix, up to 2000 μg/plate): no increases in the revertant colonies number per plate | Mutagenic potential (conclusion) ([2]; absence or presence of S9): no mutagenic potential | Tmax ([3]; both sexes, Beagle, dogs, 14-day intranasal study): 3 to 14 min | half-life ([3]; both sexes, Beagle, dogs, 14-day intranasal study, read-out: apparent elimination half-lives): 19 to 95 min

COc1ccc2[nH]cc(CCN(C)C)c2c1 [BPL-5MEO, 5-methoxy-N,N-dimethyltryptamine]
Clinical sign in one animal (male Sprague-Dawley rats; 10 mg/kg): twitching | Resolution of clinical signs and FOB changes (male Sprague-Dawley rats; 1.5, 3, and 10 mg/kg): fully resolved within 1 or 2 hours following dosing | Clinical signs in some animals (male Sprague-Dawley rats; 3 and 10 mg/kg doses): Tremors, salivation, and gasping | FOB behavioral domain (male Sprague-Dawley rats; 15 minutes postdose, comparable to control at 1-hour postdose): transient decreased activity, lying on the cage floor, and decreased rearing | Clinical signs immediately following dosing (male Sprague-Dawley rats; all dose groups, transient): decreased activity, lying on the cage floor, shallow/increased respiration and dilated pupils | FOB neurological (sensorimotor)/neuromuscular domain (male Sprague-Dawley rats; all dose levels, comparable to control at 1-hour postdose): transient changes in gait (difficulty in movement) | FOB autonomic domain (male Sprague-Dawley rats; all dose levels, comparable with control at 2 hours postdose): salivation, piloerection, increased respiration, dilated pupils and changes in body temperature | Effect on reproductive tissues (Beagle dogs; 14-day pivotal GLP intranasal toxicity study, dogs): no evidence of an adverse effect on reproductive tissues | Triglyceride (mmol/L), Mean ± SD Day 14 (Beagle dogs; Group 2, 0.4 mg/kg/day, Females): 0.46 ± 0.61 mmol/L | Triglyceride (mmol/L), Mean ± SD Day 14 (Beagle dogs; Group 2, 0.4 mg/kg/day, Males): 0.40 ± 0.11 mmol/L | Triglyceride (mmol/L), Mean ± SD Day 14 (Beagle dogs; Group 3, 0.8 mg/kg/day, Females): 0.47 ± 0.22 mmol/L | Triglyceride (mmol/L), Mean ± SD Day 14 (Beagle dogs; Group 3, 0.8 mg/kg/day, Males): 0.44 ± 0.07 mmol/L | Time to resolution of clinical signs (Beagle dogs; all treated groups): ≤ 90 min | Transient clinical observations (Beagle dogs; animals in all treated groups): incoordination, vocalization, mydriasis, decreased or increased activity, increased respiration, gnawing cage wire, excessive licking of nose or lips and circling | NOAEL at 14 days [4]: 1.5 mg/kg/day | MTD [5]: 2.5 mg/kg | Mortality and bodyweights (dogs; dose escalation phase, 2 to 5 mg/kg): no BPL-5MEO-related effects on mortality or bodyweights | Duration of convulsion in the male animal (dogs; last escalating dose 3.5 mg/kg/day): 8 min | AUC ([3]; Beagle, dogs, 1.5 mg/kg/day, combined for both sexes, read-out: AUCINT_obs at the NOAEL): 220 ng·h/mL | Cmax [3, 7]: 328 ng/mL | AUC(0-inf) [3, 7]: 265 ng·h/mL | half-life ([3]; female, Beagle, 0.8 mg/kg/day, Day 1, Female, read-out: t1/2 (converted)): 43.8 min | Cmax [3, 8]: 244 ng/mL | AUC(0-t) [3, 8]: 248 ng·h/mL | half-life ([3]; female, Beagle, 0.8 mg/kg/day, Day 14, Female, read-out: t1/2 (converted)): 95.4 min | Cmax [3, 9]: 242 ng/mL | AUC(0-t) [3, 9]: 104 ng·h/mL | AUC(0-inf) [3, 9]: 106 ng·h/mL | half-life ([3]; female, beagle, 0.4 mg/kg/day, Day 1, Female, read-out: t1/2 (converted)): 18.7 min | Cmax [3, 10]: 196 ng/mL | AUC(0-t) [3, 10]: 86.4 ng·h/mL | AUC(0-inf) [3, 10]: 95.9 ng·h/mL | half-life ([3]; female, beagle, 0.4 mg/kg/day, Day 14, Female, read-out: t1/2 (converted)): 42.4 min | Tmax ([3]; female, beagle, […], 2.5 & […], Day 1, Female): 6.66 min | half-life ([3]; female, beagle, […], 2.5 & […], Day 1, Female, read-out: t1/2 (converted)): 50.9 min | Cmax [3, 11]: 300 ng/mL | Tmax [3, 11]: 6.66 min | AUC(0-t) [3, 11]: 152 ng·h/mL | AUC(0-inf) [3, 11]: 160 ng·h/mL | half-life ([3]; male, Beagle, 0.8 mg/kg/day, Day 1, Male, read-out: t1/2 (converted)): 35.7 min | Cmax [3, 12]: 411 ng/mL | Tmax [3, 12]: 6.66 min | AUC(0-t) [3, 12]: 298 ng·h/mL | AUC(0-inf) [3, 12]: 322 ng·h/mL | half-life ([3]; male, Beagle, 0.8 mg/kg/day, Day 14, Male, read-out: t1/2 (converted)): 79.2 min | Cmax [3, 13]: 343 ng/mL | AUC(0-t) [3, 13]: 77.9 ng·h/mL | AUC(0-inf) [3, 13]: 80.9 ng·h/mL | half-life ([3]; male, beagle, 0.4 mg/kg/day, Day 1, Male, read-out: t1/2 (converted)): 34.3 min | Cmax [3, 14]: 285 ng/mL | Tmax [3, 14]: 6.66 min | AUC(0-t) [3, 14]: 70.6 ng·h/mL | AUC(0-inf) [3, 14]: 77.7 ng·h/mL | half-life ([3]; male, beagle, 0.4 mg/kg/day, Day 14, Male, read-out: t1/2 (converted)): 25.7 min | Tmax ([3]; male, beagle, […], 2.5 & […], Day 14, Male): 13.4 min | half-life ([3]; male, beagle, […], 2.5 & […], Day 14, Male, read-out: t1/2 (converted)): 49 min | NOAEL at 14 days [6]: 5 mg/kg
